Patent EP2322149A1, “Methods and compositions for the treatment of ischemia” (Universidad del Pais Vasco, priority 2009, dated 2011)
Entries after “also recorded” stand apart in the source; their conditions may differ. Structures can show the parent of a compound that is named as a salt.

Assays:
[1] = tested on: optic nerve oligodendrocytes; test: Oxygen and glucose deprivation (OGD) cell death in oligodendrocyte cultures (calcein-AM); type: cell-based, Sprague-Dawley rats; settings: 1h OGD, calcein 24h later; PPADS 100 µM, BBG 50 nM, CNQX 30 µM, APV 100 µM, apyrase 20 U/ml, ARL67156 100 µM, CBX 20 µM, FFA 100 µM, MFQ 1 nM
Description: (§1) Primary cultures of oligodendrocytes derived from optic nerves of 12 day-old Sprague-Dawley rats were obtained as previously described (Matute et al., 1997 Proc Natl Acad Sci U S A 94:8830-8835.).Cells were maintained at 37°C and 5% CO2 in a chemically defined medium (Matute et al., 1997 Proc Natl Acad Sci U S A 94:8830-8835.). After 2-4 days in vitro, cultures were composed of at least 98% 04/Ga1C^+ cells. No microglial cells were detected in these cultures. […] Cell death was determined 24h later using calcein-AM (Invitrogen) as previously described (Matute et al., 1997 Proc Natl Acad Sci U S A 94:8830-8835.). Antagonists were present during in vitro ischaemia and during the next 24h incubation period. […] To assay the levels of reactive oxygen species (ROS), cells were loaded with 40 µM 2',7'- dichlorodihyfluoresceindiacetate (DCFDA; Invitrogen) and 1 µM calcein red-orange (Molecular Probes) immediately after OGD. Calcein was used to quantify the number of cells within the reading field. Fluorescence was measured as above and values were plotted as the percentage of DCFDA/calcein red-orange fluorescence versus control. The changes in mitochondrial membrane potential were monitored with 5,5',6,6'-tetrachloro-1,1',3,3'-tetraethylbenzimidazolcarbocyanine iodide (JC-1; Molecular Probes). Immediately after OGD, cells were loaded with JC-1 (3 µM) at 37°C for 30 min. The changes in the membrane potential were calculated as the red (emission at 590)/green (emission at 520) ratio in each condition and results were normalized to control.

[2] = molecular target: T1, P2X7 receptors in oligodendrocytes (Rattus norvegicus, UniProt Q64663); test: ATP-evoked inward currents in whole-cell clamped oligodendrocytes; type: cell-based, Sprague-Dawley rats; settings: -70 mV; CBX 20 µM, MFQ 1 nM
T1 construct: ATP (1 mM)-evoked inward currents in whole-cell clamped oligodendrocytes at -70 mV; endogenous in cells; host or cells: primary rat optic nerve oligodendrocytes
T1 sequence (Q64663 1-595): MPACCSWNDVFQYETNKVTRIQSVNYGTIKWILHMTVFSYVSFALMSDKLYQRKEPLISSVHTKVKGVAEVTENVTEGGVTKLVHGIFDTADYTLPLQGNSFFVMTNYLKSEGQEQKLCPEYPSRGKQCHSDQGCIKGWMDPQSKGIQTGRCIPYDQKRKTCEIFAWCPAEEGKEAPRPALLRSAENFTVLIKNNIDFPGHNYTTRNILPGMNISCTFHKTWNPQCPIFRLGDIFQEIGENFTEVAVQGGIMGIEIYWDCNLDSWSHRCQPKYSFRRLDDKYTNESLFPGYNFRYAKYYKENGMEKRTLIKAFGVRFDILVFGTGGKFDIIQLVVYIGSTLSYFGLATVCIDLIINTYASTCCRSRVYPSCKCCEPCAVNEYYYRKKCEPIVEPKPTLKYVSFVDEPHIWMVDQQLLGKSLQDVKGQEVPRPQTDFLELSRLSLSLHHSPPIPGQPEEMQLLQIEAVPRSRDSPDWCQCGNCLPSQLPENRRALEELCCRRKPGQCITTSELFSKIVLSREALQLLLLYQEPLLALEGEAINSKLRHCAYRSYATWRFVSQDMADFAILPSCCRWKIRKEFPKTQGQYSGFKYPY
Description: Primary cultures of oligodendrocytes derived from optic nerves of 12 day-old Sprague-Dawley rats were obtained as previously described (Matute et al., 1997 Proc Natl Acad Sci U S A 94:8830-8835.).Cells were maintained at 37°C and 5% CO2 in a chemically defined medium (Matute et al., 1997 Proc Natl Acad Sci U S A 94:8830-8835.). After 2-4 days in vitro, cultures were composed of at least 98% 04/Ga1C^+ cells. No microglial cells were detected in these cultures. […] Cell death was determined 24h later using calcein-AM (Invitrogen) as previously described (Matute et al., 1997 Proc Natl Acad Sci U S A 94:8830-8835.). […] Calcein was used to quantify the number of cells within the reading field. Fluorescence was measured as above and values were plotted as the percentage of DCFDA/calcein red-orange fluorescence versus control. The changes in mitochondrial membrane potential were monitored with 5,5',6,6'-tetrachloro-1,1',3,3'-tetraethylbenzimidazolcarbocyanine iodide (JC-1; Molecular Probes). […] The changes in the membrane potential were calculated as the red (emission at 590)/green (emission at 520) ratio in each condition and results were normalized to control.
Whole cell recordings were performed at room temperature and at a holding membrane potential of -70 mV. […] Data were analyzed with Excel and Prism software.

[3] = tested on: cultured optic nerve oligodendrocytes; test: ATP release measurement (luciferin/luciferase) in oligodendrocyte cultures after OGD; type: cell-based, Sprague-Dawley rats; settings: 1h OGD in the presence of ARL67156; CBX 20 µM, FFA 100 µM, MFQ 1 nM (figure legend)
Description: as §1
(§2) ATP levels were measured using a Luciferin/Luciferase assay kit (Invitrogen) after 1h normoxia or OGD in oligodendrocyte cultures and in isolated optic nerves according to the manufacturer's instructions. The luminescence was measured with a luminometer Synergy-HT (BioTek) with an integration time of 3 sec. Because ATP was measured in the culture medium and in the solution bathing optic nerves, the concentration of ATP at the extracellular surface, near the vicinity of the receptor was underestimated (Joseph et al., 2003. J Biol Chem 278:23331-23342). The limit of ATP detection was 1 nM and luminescence was linear with increasing ATP concentrations to 1000 nM. The total amount of ATP was calculated according to standard curves and ATP release was expressed in percentage vs control.

optic nerves = test: Optic nerve ischaemia (OGD), tissue damage by LDH release; parameters: species or system rats; settings: P28 rat optic nerves, 1h OGD + 2h reperfusion; PPADS 1 mM, BBG 50 nM, oATP 1 mM, apyrase 20 U/ml, MFQ 1 µM, CBX 100 µM, FFA 1 mM
Description: (§3) After 1h OGD at 37°C, the medium was replaced with fresh solution containing glucose and equilibrated with 95% O2, 5% CO2 and the nerves were incubated for another 2h at 37°C to simulate reperfusion.

optic nerve = test: ATP release measurement (luciferin/luciferase) in isolated optic nerves after OGD; parameters: species or system rats; settings: MFQ 1 µM, CBX 100 µM
Description: as §2, §3

[4] = tested on: optic nerve oligodendrocytes; test: Ca2+ imaging (fura-2) of oligodendrocytes during chemical ischaemia; type: cell-based, Sprague-Dawley rats; settings: chemical ischaemia; PPADS 100 µM, oATP 1 mM
Description: After 2-4 days in vitro, cultures were composed of at least 98% 04/Ga1C^+ cells. No microglial cells were detected in these cultures. […] Cell death was determined 24h later using calcein-AM (Invitrogen) as previously described (Matute et al., 1997 Proc Natl Acad Sci U S A 94:8830-8835.). Antagonists were present during in vitro ischaemia and during the next 24h incubation period. […] Calcein was used to quantify the number of cells within the reading field. Fluorescence was measured as above and values were plotted as the percentage of DCFDA/calcein red-orange fluorescence versus control. […] Molecular Probes). […] The changes in the membrane potential were calculated as the red (emission at 590)/green (emission at 520) ratio in each condition and results were normalized to control. Whole cell recordings were performed at room temperature and at a holding membrane potential of -70 mV. Extracellular bath solution with a pH of 7.3 contained (in mM): […] Patch clamp pipettes (3-5 MΩ) were filled with internal solution at a pH of 7.3 containing (in mM): CsCI 140, CaC12 2, MgC12 2, HEPES 10, EGTA 11, Na-ATP 2. […] Data were analyzed with Excel and Prism software.

[5] = tested on: optic nerve oligodendrocytes; test: Whole-cell recording of ischaemic inward current in cultured oligodendrocytes (chemical ischaemia); type: cell-based, Sprague-Dawley rats
Description: After 2-4 days in vitro, cultures were composed of at least 98% 04/Ga1C^+ cells. No microglial cells were detected in these cultures. […] Cell death was determined 24h later using calcein-AM (Invitrogen) as previously described (Matute et al., 1997 Proc Natl Acad Sci U S A 94:8830-8835.). Antagonists were present during in vitro ischaemia and during the next 24h incubation period. […] Calcein was used to quantify the number of cells within the reading field. Fluorescence was measured as above and values were plotted as the percentage of DCFDA/calcein red-orange fluorescence versus control. […] Molecular Probes). […] The changes in the membrane potential were calculated as the red (emission at 590)/green (emission at 520) ratio in each condition and results were normalized to control. Whole cell recordings were performed at room temperature and at a holding membrane potential of -70 mV. Extracellular bath solution with a pH of 7.3 contained (in mM): […] Patch clamp pipettes (3-5 MΩ) were filled with internal solution at a pH of 7.3 containing (in mM): CsCI 140, CaC12 2, MgC12 2, HEPES 10, EGTA 11, Na-ATP 2. For electrophysiology monitoring, ischaemia was induced chemically by using the glycolytic blocker iodoacetate (1 mM) and the oxidative phosphorylation inhibitor antimycin (2.5 μM), and omitting glucose because recordings were performed in an open chamber where O2 can diffuse to the cells (Káradóttir et al., 2005). Recordings of ATP currents were performed in divalent cation-free extracellular solutions, obtained by omitting Ca^2+ and Mg^2+, to potentiate P2X-mediated responses (Matute et al., 1997 Proc Natl Acad Sci U S A 94:8830-8835.). […] Molecular Probes, Inc., Eugene, OR) in culture medium for 30 min at 37 °C. Experiments were carried out in a coverslip chamber continuously perfused with a buffer containing 20 mM HEPES, 2 mM CaC12, 10 mM glucose in HBSS at 1 ml/min. The perfusion chamber was mounted on the stage of a Zeiss inverted epifluorescence microscope (Axiovert 35), equipped with a 150 W xenon lamp Polychrome IV (TILL Photonics GMBH) and a Plan Neofluar 40x oil immersion objective (Zeiss, Germany). Cells were visualized with a high resolution digital B/W CCD camera (ORCA; Hamamatsu Photonics Iberica, Barcelona, Spain) and image acquisition and data analysis were carried out using the AquaCosmos software program (Hamamatsu Photonics Iberica). Images were acquired every 30 ms at 37°C and ischaemia was induced as above. […] At the end of the assay, in situ calibration was carried out with the successive addition of […] and 2M Tris/50 mM EGTA, pH 8.5. Data were analyzed with Excel and Prism software.

[6] = tested on: optic nerve oligodendrocytes; test: Reactive oxygen species (DCFDA) after OGD in oligodendrocyte cultures; type: cell-based, Sprague-Dawley rats; settings: 1 h OGD; BBG 50 nM, PPADS 100 µM
Description: (§4) Primary cultures of oligodendrocytes derived from optic nerves of 12 day-old Sprague-Dawley rats were obtained as previously described (Matute et al., 1997 Proc Natl Acad Sci U S A 94:8830-8835.).Cells were maintained at 37°C and 5% CO2 in a chemically defined medium (Matute et al., 1997 Proc Natl Acad Sci U S A 94:8830-8835.). After 2-4 days in vitro, cultures were composed of at least 98% 04/Ga1C^+ cells. No microglial cells were detected in these cultures. […] Cell death was determined 24h later using calcein-AM (Invitrogen) as previously described (Matute et al., 1997 Proc Natl Acad Sci U S A 94:8830-8835.). Antagonists were present during in vitro ischaemia and during the next 24h incubation period. […] Calcein was used to quantify the number of cells within the reading field. Fluorescence was measured as above and values were plotted as the percentage of DCFDA/calcein red-orange fluorescence versus control. The changes in mitochondrial membrane potential were monitored with 5,5',6,6'-tetrachloro-1,1',3,3'-tetraethylbenzimidazolcarbocyanine iodide (JC-1; Molecular Probes). […] The changes in the membrane potential were calculated as the red (emission at 590)/green (emission at 520) ratio in each condition and results were normalized to control.

P2X6 = P2X6 (Homo sapiens, UniProt O15547); settings: read-out: IC50 P2X6; cited from earlier work
[7] = tested on: optic nerve oligodendrocytes; test: Mitochondrial membrane potential (JC-1) after OGD in oligodendrocyte cultures; type: cell-based, Sprague-Dawley rats; settings: 1 h OGD; BBG 50 nM, PPADS 100 µM
Description: as §4

[8] = tested on: AMPA and kainate receptors; test: Glutamate receptor agonist (AMPA, kainate) induced oligodendrocyte death (calcein fluorescence); type: cell-based, Sprague-Dawley rats; settings: AMPA (100 µM) + cyclothiazide (100 µM), or kainate (3 mM) + GYKI 53655 (50 µM); PPADS 100 µM, BBG 50 nM
Description: as §4

P2X1 = molecular target: T2, P2X1 (Homo sapiens, UniProt P51575); settings: read-out: IC50 P2X1; cited from earlier work
T2 sequence (P51575 1-399): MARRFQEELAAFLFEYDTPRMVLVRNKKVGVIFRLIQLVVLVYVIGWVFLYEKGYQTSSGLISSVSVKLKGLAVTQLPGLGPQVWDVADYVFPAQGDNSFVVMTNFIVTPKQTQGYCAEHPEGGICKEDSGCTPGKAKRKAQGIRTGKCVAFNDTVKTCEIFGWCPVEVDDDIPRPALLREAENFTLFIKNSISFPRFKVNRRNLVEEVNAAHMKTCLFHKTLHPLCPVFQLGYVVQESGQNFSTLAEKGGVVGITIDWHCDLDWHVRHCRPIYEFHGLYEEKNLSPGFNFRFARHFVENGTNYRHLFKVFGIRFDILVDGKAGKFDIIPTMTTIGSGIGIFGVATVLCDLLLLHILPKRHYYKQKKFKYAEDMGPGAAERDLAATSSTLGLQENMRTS

Chain of P2X6 (O15547 whole entry, species assumed): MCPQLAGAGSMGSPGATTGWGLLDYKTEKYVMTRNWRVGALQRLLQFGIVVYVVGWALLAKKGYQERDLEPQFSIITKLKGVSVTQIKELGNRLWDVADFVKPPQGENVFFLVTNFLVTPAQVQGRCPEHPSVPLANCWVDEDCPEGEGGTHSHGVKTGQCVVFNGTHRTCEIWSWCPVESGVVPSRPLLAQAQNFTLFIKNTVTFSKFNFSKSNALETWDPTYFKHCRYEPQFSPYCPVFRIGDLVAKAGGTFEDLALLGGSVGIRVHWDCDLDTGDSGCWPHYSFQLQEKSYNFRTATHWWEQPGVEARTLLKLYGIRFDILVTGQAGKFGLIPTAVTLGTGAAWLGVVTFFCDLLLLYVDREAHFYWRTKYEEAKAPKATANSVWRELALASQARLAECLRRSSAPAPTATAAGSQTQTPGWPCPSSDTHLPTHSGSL

Row | Compound | OGD-induced oligodendrocyte cell death [1] | ATP (1 mM)-evoked inward currents [2] | ATP levels after OGD [3] | ischaemia-induced damage to optic nerves (LDH release) (optic nerves) | ATP levels during OGD (optic nerve) | increase in [Ca2+]i caused by ischaemia [4] | OGD currents after drug application versus OGD currents before drug application ([5]; after washing the antagonists out, average over BBG and PPADS, n= 15) | ischaemic inward currents ([5]; chemical ischaemia (iodoacetate, antimycin, no glucose), -70 mV, PPADS 100 µM, oATP 1 mM, BBG 50 nM) | generation of radical oxygen species (ROS) [6] | IC50 (P2X6) | mitochondrial depolarization [7] | glutamate receptor-induced oligodendrocyte death [8] | IC50 (P2X1)
1 | OC(c1cc(C(F)(F)F)nc2c(C(F)(F)F)cccc12)C1CCCCN1 [MFQ, [8-bis(trifluoromethyl)quinolin-4-yl]-[(2R)-piperidin-2-yl]methanol] | inhibited | not reduced | significantly reduced | reduced; also recorded: attenuated | reduced | – | – | – | – | – | – | – | –
2 | Cc1nc(N=Nc2ccc(S(=O)(=O)O)cc2S(=O)(=O)O)c(COP(=O)(O)O)c(C=O)c1O [PPADS, tetrasodium salt of pyridoxalphosphate-6-azophenyl-2',4'-disulfonic acid] | significantly reduced | – | – | prevented; also recorded: reduced | – | significantly blocked; also recorded: significantly reduced | 134 ± 32% | significantly reduced | prevented | > 100 µM | prevented | did not significantly inhibit | 1 to 5 µM
